“And” between values parts separate entries of the source, which are not always exact repeats. Identical values can stand only once. “Also recorded” adds a separate entry of the source.
What was measured:
rabbits [1] = assay: Topical ocular dosing in rabbits: observation of CNS, systemic, ocular and behavioral effects, ocular tolerability; format: in vivo, rabbit; details: for adverse events on repeated dosing / threshold dose for inducing systemic effects and minimal undesirable events: 50 μl per eye; for adverse events on repeated dosing: 2 times on day 1 then 4 times per day for 3 days
Method: Apparent Ocular Irritability • b. Induction of Inflammation • c. Reduction of Corneal Barrier Integrity • d. Dry Eye or Excessive Tearing • e. Induction of Neovascularization • f. Induction of Scleral Reddening
Parameters Assessed during 2 hour Observation Window (see, for example, FIG. 1):
Two studies were performed to determine at what dose between 0.01% and 0.1% were behavioral and/or systemic effects observed. 50 μL doses at 0.01%, 0.05%, and 0.075% per eye applied and assessments were made as indicated herein.
The application of most topical eye drops requires repeatedly dosing up to 9 times per day in order to maintain efficacy across the course of waking hours and have efficacious levels available during sleeping hours. The effects of repeated ocular dosing of R-DOI were assessed in a similar manner as described herein, with the exception that doses of 0.01% or 0.05% were applied repeatedly as outlined herein:
Animals from the acute dosing were continued through the repeated dosing study. Animals were dosed at the indicated concentration 2 times on day 1 and then dosed 4 times per day for 3 subsequent days. Doses were administered at 50 μl per eye into both eyes of the animal.
Rabbits were assessed for clinically clear eyes by slit lamp ophthalmic scoring. All eyes of all rabbits were normal.
Following balancing animals were treated with 50 μL of Control ophthalmic BSS/0.5% CMC or 0.01% Compound 1 in ophthalmic BSS/0.5% CMC.
Any behavioral changes were continuously monitored over the next 2.5 hours (FIG. 3).
We can determine if a single dose of the ocular composition of 0.01% R-DOI with 0.5% carboxymethylcellulose in ophthalmic BSS: • 1. Reproduced previous findings that R-DOI had IOP depressing effects. • 2. Produced any readily observable behavioral effects. • 3. Was tolerated by the eye without adverse ocular effects, including absence of: • a. Apparent Ocular Irritability • b. Induction of Inflammation • c. Dry Eye or Excessive Tearing • d. Induction of Scleral Reddening • 4. Reduced IOP • 5. Maintained Reduction in IOP • 6. Increased Tear Film Production
(§1) • Rabbits were assessed for clinically clear eyes by slit lamp ophthalmic scoring. All eyes of all rabbits were normal. • Each eye of each rabbit was then assessed for initial IOP by tonometer. • Each eye of each rabbit was assessed for tear film production by Schirmer's Tear Flo Strips at a 30 second interval of analysis. Tear measures were evaluated by a digital caliper to determine mm of tears collected. • Rabbits were sorted into two groups attempting to balance IOP numbers (one higher, one lower animal per group). • Following animals were treated with 50 μL of Control ophthalmic BSS/0.5% CMC or 0.01% R-DOI HCl in ophthalmic BSS/0.5% CMC. • Any apparent behavioral changes were continuously monitored over the next 2.5 hours. • IOP determinations were made at 30 minutes, 1 hour, 2 hours and 3 hours, 5 hours, 7 hours and 24 hours-eyes were examined closely for any adverse effects during these IOP measures. • 7 hours post treatment when IOP returned to control levels tear film production was assessed (see, for example, FIG. 9).

rabbits [2] = assay: Tear film production by Schirmer's Tear Flo Strips in rabbits; format: in vivo, rabbit
Method: Each eye of each rabbit was assessed for tear film production by Schirmer's Tear Flo Strips at a 30 second interval of analysis. Tear measures were evaluated by a digital caliper to determine mm of tears collected.
3 days post treatment at the same time initial measures were made, IOP and tear film production were re-assessed to examine if effects were sustained post 1 treatment.
(§2) Effects of Compound 1 on Tear Production: Current IOP lowering glaucoma drugs eventually have effects on tear production resulting in dry eye conditions. Further, there are additional associations between dry eye and glaucoma, with co-incidence of the two conditions quite common. […] Selective 5-HT agonists/antagonists can reverse symptoms of dry eye-a very large ophthalmic market. The effects of Compound 1 on tear film production (see, for example, FIG. 6 panels A-D) were therefore assessed by a Schirmer's Tear Flo strip and measured using a digital micrometer caliper.
as §1
as §2, with “R-DOI” for “Compound 1”, “conditions” for “conditions quite”, “production” for “production (see, for example, FIG. 6 panels A-D)”

[3] = Weight changes across 1 week of dosing; format: in vivo, rabbit
[4] = Solubility in ophthalmic eye drop (BSS, 0.5% CMC); format: physicochemical; details: 0.1% (5 mg/5 mL) in BSS with 0.5% CMC, pH 7.0
Method: Non-Limiting, Exemplary Findings Discussed within: • The NCE Compound 1 was formulated within an ophthalmic eye drop with BSS and 0.5% carboxymethylcellulose (CMC) at percentages of 0.1% (5 mg/5 ml) and lower with a pH of 7.0.
• The R-DOI HCl was formulated within an ophthalmic eye drop with BSS and 0.5% carboxymethylcellulose (CMC) at percentages of 0.1% (5 mg/5 mL) and lower with a pH of 7.0.

[5] = 0.075%, 50 μL per eye, both eyes, single dose
[6] = 0.075%, 50 μL per eye, both eyes, single dose, listed as R-DOI HCl
[7] = 0.1%, 50 μL per eye, both eyes, single dose
[8] = 0.1%, 50 μL per eye, both eyes, single dose, 2 hour observation
[9] = 0.1%, 50 μL per eye, both eyes, single dose, 2 hour observation, listed as R-DOI HCl
[10] = 0.01% (1 dose/day day 1, 2 dose/day day 2, 4 dose/day days 3-5)
[11] = 0.1% day 1, then 0.05% (2 dose/day day 2, 4 dose/day days 3-5)

COc1cc(C[C@@H](C)N)c(OC)cc1I [R-DOI, (R)-1-(2,5-dimethoxy-4-iodophenyl)-2-aminopropane]
ocular tolerability of ophthalmic drops (irritability, dry eye or tearing, corneal damage, inflammation, neovascularization) (rabbits [1]; 0.01% or 0.05%, repeated dosing, listed as R-DOI HCl): tolerated with no signs or symptoms of irritability; also recorded: Neither signs of dry eye nor excessive tear production was observed; also recorded: no damage to corneal surfaces, barrier intactness, inflammation, or neovascularization | adverse events (ocular, systemic, behavioral or otherwise) (rabbits [1]; 0.01%, 50 μL per eye, both eyes, single dose): No observable changes; also recorded: no apparent adverse events | adverse events (ocular, systemic, behavioral or otherwise) (rabbits [1]; 0.01%, 50 μL per eye, both eyes, single dose, listed as R-DOI HCl): no adverse or abnormal events observed | adverse events on repeated dosing (rabbits [1]; 0.01%, both eyes): did not cause any adverse events; also recorded: No observable changes | adverse events on repeated dosing (rabbits [1]; 0.01%, both eyes, listed as R-DOI HCl): no adverse or abnormal events observed | acute ocular toxicity, irritability or adverse ocular reactions (rabbits [1]; 0.01%, acute single dosing): did not exhibit any acute ocular toxicity, irritability, or adverse ocular reactions | adverse events (ocular, systemic, behavioral or otherwise) (rabbits [1]; 0.05%, 50 μL per eye, both eyes, single dose): No adverse events; also recorded: No observable changes | adverse events (ocular, systemic, behavioral or otherwise) (rabbits [1]; 0.05%, 50 μL per eye, both eyes, single dose, listed as R-DOI HCl): no adverse or abnormal events observed | adverse events on repeated dosing (rabbits [1]; 0.05%, both eyes): did not cause any adverse events; also recorded: No observable changes | adverse events on repeated dosing (rabbits [1]; 0.05%, both eyes, listed as R-DOI HCl): no adverse or abnormal events observed | adverse events (ocular, systemic, behavioral or otherwise) (rabbits [1]; [5]): No adverse events; also recorded: No CNS, Ocular Behavioral or Systemic Changes | pupil dilation/contraction (miosis) (rabbits [1]; [5]): Slight Miosis can be observed in E10 and E11 | adverse events (ocular, systemic, behavioral or otherwise) (rabbits [1]; [6]): no adverse CNS or systemic events observed | pupil dilation/contraction (miosis) (rabbits [1]; [6]): Slight but transient miosis was evident in 2 animals | time for miosis to resolve to normal after initial observation (rabbits [1]; 0.075%, single dose, 2 animals): ≤ 15 min | onset of symptoms (rabbits [1]; [7]): 20 min | time post treatment at which observed effects were cleared (rabbits [1]; [7]): cleared by one hour post administration and 1 hour to 2 hour post: Regained Responsiveness; Breathing Normal; Pupils Normal | CNS associated behavioral effects (rabbits [1]; [8]): only slight CNS associated behavioral effects were noted; also recorded: Lethargy; also recorded: Head twitch? | pupil dilation/contraction (miosis) (rabbits [1]; [8]): miosis or contraction of the pupil; also recorded: Miosis obvious (pupil contracted) | systemic effects (respiration and heart rate) (rabbits [1]; [8]): increased respiration and heart rate were noted; also recorded: Increased breathing and Heartrate | CNS associated behavioral effects (rabbits [1]; [9]): minimal to no head bobs/twitches observed | systemic effects (respiration and heart rate) (rabbits [1]; [9]): obvious increased respiration and heart rates | time post treatment at which observed effects were cleared (rabbits [1]; 0.1%, 50 μL per eye, both eyes, single dose, listed as R-DOI HCl): approximately 1 hour | threshold dose for inducing systemic effects and minimal undesirable events (rabbits [1]; both eyes): greater than 0.075% | threshold dose for inducing systemic effects and minimal undesirable events (rabbits [1]; both eyes, listed as R-DOI HCl): 0.1% | systemic and behavioral threshold concentration for delivery (rabbits [1]; delivered as a 50 μL drop of 0.1% ophthalmic solution to both eyes): ≥ 100 total micrograms per animal | acute ocular toxicity, irritability or adverse ocular reactions (rabbits [1]; topical eye drop, acute single dosing and repeated dosing trials): did not exhibit any acute ocular toxicity, irritability or adverse ocular reactions | average increase in tear film production (rabbits [2]; 0.01% single dose, 7 h post treatment): 2.27 mm | tear production as measured by Schirmer's test (rabbits [2]; topical ocular dose): increased tear production relative to initial and control treatment; also recorded: significant increase in tear production | 1 week weight [3, 10]: 3.17 kg and 2.89 kg | 1 week weight change [3, 10]: 0.11 and 0.07 | weight with repeated dosing ([3]; 0.01% or 0.05% repeated dosing, 1 week): no loss of weight with repeated dosing | 1 week weight [3, 11]: 2.96 kg and 2.79 kg | 1 week weight change [3, 11]: 0.08 and 0.09 | Solubility of the compound [4]: good with no remaining precipitates

— patent US20260240792A1, “COMPOSITIONS FOR TREATING 5-HT2 CONDITIONS AND METHODS OF USING THE SAME” (Board of Supervisors of Louisiana State University and …, priority 2022, published 2026)
